Data on 18 compounds can be found in PubChem BioAssay AID256 (DTP/NCI, 2004).

In the assay the test system is CD2F1 mice, L1210 leukemia ip, survival T/C. Put plainly: NCI In Vivo Anticancer Drug Screen. Data for tumor model L1210 Leukemia (intraperitoneal) in CD2F1 (CDF1) mice. As to conditions: higher = longer survival. Put shortly:
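Vehicle-treated tumor-bearing mice served as controls (C) for compound-treated mice (T). Reported figure is T divided by C.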

[1] abbreviates: endpoint: mean survival time, dose: 100.0 mg/kg/injection, schedule: Q01DX009 (ip), vehicle: saline with Tween-80.
Where [2] appears, read: endpoint: mean survival time, dose: 200.0 mg/kg/injection, schedule: Q01DX009 (ip), vehicle: saline with Tween-80.
Setting [3] is: endpoint: mean survival time, dose: 400.0 mg/kg/injection, schedule: Q01DX009 (ip), vehicle: saline with Tween-80.
[4] abbreviates: endpoint: mean survival time, dose: 100.0 mg/kg/injection, schedule: Q01DX001 (ip), vehicle: saline with Tween-80.
Setting [5] is: endpoint: mean survival time, dose: 200.0 mg/kg/injection, schedule: Q01DX001 (ip), vehicle: saline with Tween-80.
[6] abbreviates: endpoint: mean survival time, dose: 50.0 mg/kg/injection, schedule: Q04DX002 (ip), vehicle: saline with Tween-80.

“And” between values parts separate entries of the source, which are not always exact repeats. Identical values can stand only once. Toxic doses and inconclusive results are not listed.

As to `O=C(O)c1[nH]c(=O)[nH]c(=O)c1F`, the T/C by setting is: (endpoint: mean survival time, dose: 1.25 mg/kg/injection, schedule: Q01DX009 (ip), vehicle: saline) 101 % of control and 109 % of control; (endpoint: mean survival time, dose: 2.5 mg/kg/injection, schedule: Q01DX007 (ip), vehicle: Klucel (hydroxypropylcellulose) (HPC)) 119 % of control; (endpoint: mean survival time, dose: 2.5 mg/kg/injection, schedule: Q01DX009 (ip), vehicle: saline) 123 % of control; (endpoint: mean survival time, dose: 2.5 mg/kg/injection, schedule: Q03DX003 (ip), vehicle: Klucel (hydroxypropylcellulose) (HPC)) 110 % of control; (endpoint: mean survival time, dose: 2.5 mg/kg/injection, schedule: Q04DX003 (ip), vehicle: Klucel (hydroxypropylcellulose) (HPC)) 103 % of control; (endpoint: mean survival time, dose: 5.0 mg/kg/injection, schedule: Q01DX007 (ip), vehicle: Klucel (hydroxypropylcellulose) (HPC)) 165 % of control. Further, the T/C (endpoint: mean survival time, dose: 5.0 mg/kg/injection, schedule: Q01DX009 (ip), vehicle: saline) is 168 % of control; the T/C (endpoint: mean survival time, dose: 5.0 mg/kg/injection, schedule: Q03DX003 (ip), vehicle: Klucel (hydroxypropylcellulose) (HPC)) is 122 % of control; the T/C (endpoint: mean survival time, dose: 5.0 mg/kg/injection, schedule: Q04DX003 (ip), vehicle: Klucel (hydroxypropylcellulose) (HPC)) was 112 % of control; the T/C (endpoint: mean survival time, dose: 10.0 mg/kg/injection, schedule: Q01DX007 (ip), vehicle: Klucel (hydroxypropylcellulose) (HPC)) was 119 % of control; the T/C (endpoint: mean survival time, dose: 10.0 mg/kg/injection, schedule: Q04DX003 (ip), vehicle: Klucel (hydroxypropylcellulose) (HPC)) is 117 % of control.

As to `S=C(S)NCCc1ccccn1`, the T/C is, setting by setting: under setting [1], 102 % of control; under setting [2], 94 % of control; under setting [3], 103 % of control.

For `C(=N\N=C(c1ccccc1)c1ccccc1)/c1ccc2c(c1)CCC2`, the T/C runs as follows: (endpoint: mean survival time, dose: 100.0 mg/kg/injection, schedule: Q04DX003 (ip), vehicle: saline with Tween-80) 87 % of control; (endpoint: mean survival time, dose: 200.0 mg/kg/injection, schedule: Q04DX003 (ip), vehicle: saline with Tween-80) 95 % of control; (endpoint: mean survival time, dose: 400.0 mg/kg/injection, schedule: Q04DX003 (ip), vehicle: saline with Tween-80) 91 % of control.

Take `CCCCC(CC)COP(OCC(CC)CCCC)OCC(CC)CCCC` (stereo not given): the T/C is 92 % of control under setting [1] and 87 % of control under setting [2].

Consider `CC(C)C(=O)C1CCCCC1`, for which the T/C was 103 % of control (endpoint: mean survival time, dose: 50.0 mg/kg/injection, schedule: Q01DX009 (ip), vehicle: saline with Tween-80); 95 % of control under setting [1]; 95 % of control under setting [2].

In the case of `O=C(COc1cc(Cl)c(Cl)cc1Cl)OCCN(CCOC(=O)COc1cc(Cl)c(Cl)cc1Cl)C(=O)COc1ccc(Cl)cc1`, the T/C is, setting by setting: (endpoint: mean survival time, dose: 100.0 mg/kg/injection, schedule: Q04DX003 (ip), vehicle: other) 93 % of control; (endpoint: mean survival time, dose: 200.0 mg/kg/injection, schedule: Q04DX003 (ip), vehicle: other) 96 % of control; (endpoint: mean survival time, dose: 400.0 mg/kg/injection, schedule: Q04DX003 (ip), vehicle: other) 107 % of control.

Take `O=[N+]([O-])c1cc(Cl)c(Cl)cc1[N+](=O)[O-]`: the T/C was 90 % of control under setting [4] and 90 % of control under setting [5].

Turning to `COc1ccc(Sc2cccc3c2C(=O)c2c(Sc4ccc(OC)cc4)cccc2C3=O)cc1`, the T/C runs as follows: under setting [1], 99 % of control; under setting [2], 94 % of control; under setting [3], 89 % of control.

Consider `C[N+](C)(C)/N=C/c1ccc(Cl)cc1`, for which the T/C under setting [6] was 93 % of control.

Take `CC1=NN(c2ccc([N+](=O)[O-])cc2)C(=O)C1[N+](=O)[O-]` (stereo not given) (tested in a mixture with another compound): the T/C is 92 % of control (endpoint: mean survival time, dose: 75.0 mg/kg/injection, schedule: Q01DX001 (ip), vehicle: other); 91 % of control under setting [4]; 104 % of control (endpoint: mean survival time, dose: 150.0 mg/kg/injection, schedule: Q01DX001 (ip), vehicle: other); 97 % of control under setting [5].

Regarding `Cc1ccc(C2NC(=S)N3C(c4ccc(C)cc4)NC(=S)N23)cc1` (stereo not given), the T/C by setting is: (endpoint: median survival time, dose: 25.0 mg/kg/injection, schedule: Q01DX009 (ip), vehicle: Klucel (hydroxypropylcellulose) (HPC)) 105 % of control; (endpoint: median survival time, dose: 50.0 mg/kg/injection, schedule: Q01DX009 (ip), vehicle: Klucel (hydroxypropylcellulose) (HPC)) 104 % of control; (endpoint: median survival time, dose: 100.0 mg/kg/injection, schedule: Q01DX009 (ip), vehicle: Klucel (hydroxypropylcellulose) (HPC)) 106 % of control; (endpoint: median survival time, dose: 200.0 mg/kg/injection, schedule: Q01DX009 (ip), vehicle: Klucel (hydroxypropylcellulose) (HPC)) 104 % of control; (endpoint: median survival time, dose: 400.0 mg/kg/injection, schedule: Q01DX009 (ip), vehicle: Klucel (hydroxypropylcellulose) (HPC)) 101 % of control; (endpoint: median survival time, dose: 800.0 mg/kg/injection, schedule: Q01DX009 (ip), vehicle: Klucel (hydroxypropylcellulose) (HPC)) 106 % of control.

For `Cn1c(=O)[nH]c2c(nc(-c3ccc(Cl)cc3)n2CCc2ccccc2)c1=O`, the T/C by setting is: (endpoint: mean survival time, dose: 7.8 mg/kg/injection, schedule: Q01DX005 (ip), vehicle: other) 100 % of control; (endpoint: mean survival time, dose: 15.6 mg/kg/injection, schedule: Q01DX005 (ip), vehicle: other) 95 % of control; (endpoint: mean survival time, dose: 31.3 mg/kg/injection, schedule: Q01DX005 (ip), vehicle: other) 95 % of control; (endpoint: mean survival time, dose: 62.5 mg/kg/injection, schedule: Q01DX005 (ip), vehicle: other) 95 % of control; (endpoint: mean survival time, dose: 125.0 mg/kg/injection, schedule: Q01DX005 (ip), vehicle: other) 95 % of control.

With `C=C1[C@@H](C)[C@H]2[C@H](Cc3ccccc3)NC(=O)[C@]23OC(=O)/C=C/[C@H](O)CCC[C@@H](C)C/C=C/[C@H]3[C@@H]1O`, the T/C (endpoint: mean survival time, dose: 0.5 mg/kg/injection, schedule: Q04DX002 (ip), vehicle: Klucel (hydroxypropylcellulose) (HPC)) is 100 % of control; the T/C (endpoint: mean survival time, dose: 1.0 mg/kg/injection, schedule: Q04DX002 (ip), vehicle: Klucel (hydroxypropylcellulose) (HPC)) is 103 % of control; the T/C (endpoint: mean survival time, dose: 2.0 mg/kg/injection, schedule: Q04DX002 (ip), vehicle: Klucel (hydroxypropylcellulose) (HPC)) was 100 % of control; the T/C (endpoint: mean survival time, dose: 4.0 mg/kg/injection, schedule: Q04DX002 (ip), vehicle: Klucel (hydroxypropylcellulose) (HPC)) is 103 % of control; the T/C (endpoint: mean survival time, dose: 8.0 mg/kg/injection, schedule: Q04DX002 (ip), vehicle: Klucel (hydroxypropylcellulose) (HPC)) is 95 % of control.

`CC(=N\[O-])/C(C)=N/O.CC(=N\[O-])/C(C)=N/O.CC(=O)[O-].CC(=O)[O-].O.[Rh+2].[Rh+2]`: the T/C (endpoint: mean survival time, dose: 0.78 mg/kg/injection, schedule: Q01DX009 (ip), vehicle: saline) is 88 % of control; the T/C (endpoint: mean survival time, dose: 3.13 mg/kg/injection, schedule: Q01DX009 (ip), vehicle: saline) was 96 % of control; the T/C (endpoint: mean survival time, dose: 6.25 mg/kg/injection, schedule: Q01DX009 (ip), vehicle: saline) is 91 % of control; the T/C (endpoint: mean survival time, dose: 12.5 mg/kg/injection, schedule: Q01DX009 (ip), vehicle: Klucel (hydroxypropylcellulose) (HPC)) was 95 % of control; the T/C (endpoint: mean survival time, dose: 12.5 mg/kg/injection, schedule: Q01DX009 (ip), vehicle: saline) is 93 % of control.

Regarding `COCCN1CCC(C)(CO)C1` (stereo not given), the T/C was 94 % of control (endpoint: mean survival time, dose: 100.0 mg/kg/injection, schedule: Q01DX009 (ip), vehicle: saline); 94 % of control (endpoint: mean survival time, dose: 200.0 mg/kg/injection, schedule: Q01DX009 (ip), vehicle: saline); 100 % of control (endpoint: mean survival time, dose: 400.0 mg/kg/injection, schedule: Q01DX009 (ip), vehicle: saline).

Turning to `O=c1[nH]c(=O)n(C2CC(O)C(CO)O2)cc1COCc1ccccc1` (stereo not given), the T/C runs as follows: (endpoint: mean survival time, dose: 100.0 mg/kg/injection, schedule: Q01DX005 (ip), vehicle: saline) 95 % of control; (endpoint: mean survival time, dose: 200.0 mg/kg/injection, schedule: Q01DX005 (ip), vehicle: saline) 105 % of control and 97 % of control.

Regarding `CC(=O)OC1CSC(C(C)(C)C)SC1` (stereo not given), the T/C by setting is: (endpoint: mean survival time, dose: 12.5 mg/kg/injection, schedule: Q04DX002 (ip), vehicle: saline with Tween-80) 102 % of control; (endpoint: mean survival time, dose: 25.0 mg/kg/injection, schedule: Q04DX002 (ip), vehicle: saline with Tween-80) 102 % of control; under setting [6], 108 % of control.

Turning to `CCC12NC(=O)NC1(C)NC(=O)N2` (stereo not given), the T/C is, setting by setting: (endpoint: mean survival time, dose: 6.25 mg/kg/injection, schedule: Q01DX009 (ip), vehicle: saline with Tween-80) 95 % of control; (endpoint: mean survival time, dose: 6.25 mg/kg/injection, schedule: Q04DX003 (ip), vehicle: saline with Tween-80) 102 % of control; (endpoint: mean survival time, dose: 12.5 mg/kg/injection, schedule: Q01DX009 (ip), vehicle: saline with Tween-80) 95 % of control; (endpoint: mean survival time, dose: 12.5 mg/kg/injection, schedule: Q04DX003 (ip), vehicle: saline with Tween-80) 106 % of control; (endpoint: mean survival time, dose: 25.0 mg/kg/injection, schedule: Q01DX009 (ip), vehicle: saline with Tween-80) 93 % of control; (endpoint: mean survival time, dose: 25.0 mg/kg/injection, schedule: Q04DX003 (ip), vehicle: saline with Tween-80) 110 % of control.
